Test results: patent publication US9974782B2, “Phosphodiesterase inhibitors and uses thereof” (THE TRUSTEES OF COLUMBIA UNIVERSITY IN THE CITY OF NEW YORK, priority 2008, dated 2018)
“Also recorded” adds a separate entry of the source.

Assays:
[1] = system: CA1 region of hippocampal slices from APP/PS1 and WT mice; assay: Electrophysiological analysis (BST, LTP) of hippocampal slices perfused with inhibitor; format: cell-based, mouse; conditions: for effect on LTP impairment in words: slices from APP/PS1 (transgenic) mice, 10 min prior to tetanus
[2] = in vivo
Experimental: The pharmacokinetic studies were conducted in male BABL/c mice. The blood and brain samples were collected at predetermined times from three mice per time point. […] An LC-MS/MS method was developed to determine these compounds in plasma and brain samples.
Quantification was achieved by the internal standard method using peak area ratios of the analysis to the internal standard in plasma and brain. Concentrations were calculated using a weighted least-squares linear regression (W=1/×2). The major pharmacokinetic parameters were calculated and the brain-to-plasma distribution ratios were estimated.
The PDE5 inhibitor was prepared by dissolving the test article in 0.5% methyl cellulose to yield final concentrations at 5 mg/mL for PO administration.
Mice were sacrificed by cervical dislocation after blood harvest. The plasma were separated via centrifugation (4° C., 3500 rpm, 10 min) and stored in −80° C. before analysis.
Frozen unknown plasma samples were thawed at room temperature and vortexed thoroughly. With a pipette, 25 μL of plasma was transferred into a 1.5 mL Eppendorf tube. To each sample, 25 μL of methanol and 25 μL of the internal standard were added, followed by the addition of 100-μL methanol. The sample mixture was vortexed for approximately 1 min. After centrifugation at 11000 g for 5 min, the upper organic layer was transferred to a glass tube and evaporated at 40° C. under a gentle stream of nitrogen. Residues were dissolved in 150 μL of the mobile phase, and mixed in a vortex mixer. A 20-μL aliquot of the resulting solution was injected onto the LC/MS/MS system for analysis.
Brains were collected immediately after mice death. The brains were excised, weighed, and rinsed by cold saline and then frozen at −80° C. until further process for LC/MS/MS analysis.
On the day of the assay, the frozen tissue samples were thawed unassisted at room temperature. When completely thawed, each tissue sample of 200 mg was weighed and placed into a plastic tube. Methanol (1.0 mL) was added to facilitate homogenization, which was conducted using a Fluko F6/10 superfine homogenizer for approximately 1 min. Then, the homogenized samples were vortexed for 1 min. A 25-μL aliquot of the homogenized samples was transferred into an Eppendorf tube. To each sample, 25 μL of methanol and 25 μL of the internal standard were added. The sample mixture centrifuged at 11000 g for 5 min. A 20-μL aliquot of the supernatants was diluted to 80 μL or 60 μL with the mobile phase and a 10-μL aliquot was injected onto the LC/MS/MS system for analysis.
We then investigated the PK and BBB penetration capability of YF012403. After p.o. administration at 50 mg/kg to BABL/c mice, plasma and brain concentrations were determined by the LC-MS/MS.

[3] = system: cGMP; conditions: sildenafil 3 mg/kg; cited from earlier work
[4] = rodents; cited from earlier work
[5] = system: APP/PS1 mice; assay: Morris water maze and probe trial (reference memory); format: in vivo, mouse
Experimental: To investigate sildenafil effect on long-term memory, reference memory was tested with a Morris water maze task that is known to require hippocampal function^A20 and is impaired after 6 months of age in the APP/PS1 mice^A12. Vehicle-treated transgenic mice needed more time to find the hidden platform after six sessions compared to WT littermates (FIG. 3C). […] This task is performed after the sixth hidden-platform session. The platform is removed from the water and the animals are allowed to search for 60 seconds. A mouse, knowing that the platform was in a certain position, will trawl repeatedly over that position looking for it. […] The amount of time spent in each quadrant of the maze can be used to evaluate the spatial bias of an animal's search pattern. Vehicle-treated WT mice spent more time in the target quadrant (TQ), where the platform had been located during training than in other quadrants, than in the adjacent quadrant to the right (AR), in the adjacent quadrant to the left (AL), or in the opposite quadrant (OQ) (FIG. 3D). Also, sildenafil improved the performance of the APP/PS1 mice which searched more in the quadrant where the platform had been located during training than in other quadrants (FIG. 3D). […] Sildenafil-treated WT mice remembered where the platform was the previous days and spent about the same time as vehicle-treated WT littermates. […] Behavioral Studies-Reference Memory: The task studied with the Morris water maze has been previously described^12. Briefly, mice were trained in 2 daily sessions (4 hours apart), each consisting of 3 trials (1 minute each), for 3 days. Time required to reach the hidden platform was recorded. To test the retention of the spatial memory, 4 probe trials were performed after the training with the platform […]. The maze was divided into 4 quadrants. The percent of time spent in the quadrant that previously contained the platform was recorded and analyzed with a video tracking system ([…] Image).

[6] = system: isolated rabbit corpus cavernosum; conditions: read-out: EC50, relaxant effect; cited from earlier work
[7] = system: mice infused with Aβ42; assay: Contextual fear memory in mice infused with Aβ42; format: in vivo, mouse; conditions: 3 or 10 mg/Kg, p.o., immediately after training
Experimental: Our next goal was to check if YF012403 can attenuate synaptic and cognitive dysfunction in APP/PS1 mice. We induced LTP or contextual fear memory in the presence of oligomeric Aβ42, or vehicle [S18]. In the LTP experiments 200 nM Aβ42 or vehicle were perfused through the bath solution for 20 min prior to the application of the θ-burst. In the behavioral experiments 200 nM Aβ42 or vehicle were bilaterally infused 15 min prior to the foot shock into dorsal hippocampus of the animal that had been pre-implanted with a cannula the week before. Aβ reduced LTP and contextual fear memory (FIG. 49). However, YF012403 (50 nM, for 10 min prior to the θ-burst in the LTP experiments; 3 or 10 mg/Kg, p.o., immediately after training in the behavioral experiments) ameliorated the electrophysiological and behavioral deficits (FIG. 49).

[8] = APP/PS1 slices, sildenafil 50 nM
[9] = WT slices, 120 min after tetanus, sildenafil 50 nM, tadalafil 50 nM, IC354 1 μM
[10] = WT slices, sildenafil or tadalafil 50 nM
[11] = slices of 3-month-old APP/PS1 mice, 120 min after tetanus, 10 min perfusion (sildenafil 50 nM, tadalafil 50 nM, IC354 1 μM)
[12] = male, BABL/c, mouse, in vivo, po, 50 mg/kg, half-life in the brain
[13] = male, BABL/c, mouse, in vivo, po, 50 mg/kg, half-life in the plasma
[14] = APP/PS1, 3 mg/Kg i.p. for 3 weeks at 3 months
[15] = APP/PS1 previously treated with sildenafil
[16] = WT previously treated with sildenafil
[17] = WT, 3 mg/Kg i.p. for 3 weeks at 3 months
[18] = treated at 3 months, tested at 6-8 months

Q: With `CCCc1nn(C)c2c(=O)[nH]c(-c3cc(S(=O)(=O)N4CCN(C)CC4)ccc3OCC)nc12` [sildenafil, 5-[2-ethoxy-5-(4-methyl-1-piperazinylsulphonyl)phenyl]-1-methyl-3-n-propyl-1,6-dihydro-7H-pyrazolo[4,3-d]pyrimidin-7-one] as the molecule, how does the “basal neurotransmission without tetanus as % of vehicle-treated WT slices” value [1, 8] read?
A: ~96%

Q: And the “basal neurotransmission without tetanus, fEPSP % of baseline” value [1, 8]?
A: 99.99±3.71%

Q: And the “LTP, fEPSP slope as % of baseline” value [1, 9]?
A: 213.26±13.66%

Q: And the “level of LTP as % of vehicle-treated WT slices” value [1, 9]?
A: ~99%

Q: What about the “basal synaptic responses without tetanus as % of vehicle-treated WT slices” value [1, 10] of the same molecule?
A: ~97%

Q: And the “basal synaptic responses without tetanus, fEPSP % of baseline” value [1, 10]?
A: 100.51±2.34%

Q: What about the “effect on LTP impairment in words” value [1] of the same molecule?
A: reverses LTP impairment

Q: And the “minimum effective dose that completely rescues synaptic plasticity” value ([1]; slices of 3-month-old APP/PS1 mice)?
A: 50 nM

Q: And the “LTP, fEPSP slope as % of baseline” value [1, 11]?
A: 215.08±11.85%

Q: And the “level of LTP as % of vehicle-treated WT littermates” value [1, 11]?
A: ~100%

Q: What about the “LTP as % of vehicle-treated WT slices” value ([1]; slices of 6 month old APP/PS1 mice, 500 nM) of the same molecule?
A: 93%

Q: What about the “minimum effective dose that completely rescues LTP” value ([1]; slices of 6 month old APP/PS1 mice, 10 min bath application) of the same molecule?
A: 500 nM

Q: What about the “effect on BST (fEPSP slope) in words” value ([1]; slices of 6 month old APP/PS1 mice, different concentrations) of the same molecule?
A: do not change fEPSP slope

Q: What about the half-life [2, 12] of the same molecule?
A: 0.84 h

Q: What about the half-life [2, 13] of the same molecule?
A: 1.21 h

Q: What about the “cGMP concentration in the hippocampus” value [3] of the same molecule?
A: ~2.5 µM

Q: And the in vivo half-life [4]?
A: 0.4 h

Q: What about the “minimum time needed to improve performance with the MWM” value ([5]; 3 mg/kg) of the same molecule?
A: 2 weeks

Q: What about the “minimum time needed to improve performance with the probe trial” value ([5]; 3 mg/kg) of the same molecule?
A: 2 weeks

Q: What about the “Morris water maze, time to find the hidden platform after six sessions” value [5, 14] of the same molecule?
A: 32.92 ± 3.50 s

Q: And the “time to platform as % of vehicle-treated WT mice” value [5, 14]?
A: ~114%

Q: And the “probe test, % of time spent in target quadrant (TQ)” value [5, 15]?
A: 32.25±0.58%

Q: And the “time in TQ as % of vehicle-treated WT littermates” value [5, 15]?
A: ~97%

Q: What about the “probe test, % of time spent in target quadrant (TQ)” value [5, 16] of the same molecule?
A: 33.35±1.38%

Q: And the “time in TQ as % of vehicle-treated WT littermates” value [5, 16]?
A: ~100%

Q: What about the “Morris water maze, time to find the hidden platform” value [5, 17] of the same molecule?
A: 25.64 ± 3.16 s

Q: And the “time to platform as % of vehicle-treated WT mice” value [5, 17]?
A: ~89%

Q: What about the “minimum concentration needed to improve performance with the MWM” value [5, 18] of the same molecule?
A: 3 mg/kg

Q: And the “minimum concentration needed to improve performance with the probe trial” value [5, 18]?
A: 3 mg/kg

Q: And the EC50 [6]?
A: 8.7 nM

Q: For `COc1ccc(CNc2c(CO)cnc3c(C4CC4)cc(C#N)cc23)cc1Cl` [YF012403, 4-(3-chloro-4-methoxybenzylamino)-8-cyclopropyl-3-(hydroxymethyl)-quinoline-6-carbonitrile], which “effect on LTP impairment in words” value [1] is on record?
A: rescues the defect in LTP

Q: And the Kp ([2]; male, BABL/c, mouse, brain, oral, 50 mg/kg)?
A: 0.41

Q: And the Cmax ([2]; male, BABL/c, mouse, in vivo, po, 50 mg/kg)?
A: 385 ng/g

Q: And the half-life [2, 12]?
A: 1.04 h

Q: And the half-life [2, 13]?
A: 1.33 h

Q: What about the “log BB” value ([2]; mouse, in vivo) of the same molecule?
A: −0.38

Q: What about the “time of peak plasma concentration after dosing” value ([2]; p.o., 50 mg/kg, BABL/c mice) of the same molecule?
A: 0.5 h

Q: What about the “effect on contextual fear memory deficit in Aβ42-infused mice in words” value [7] of the same molecule?
A: ameliorates the contextual fear memory deficit; also recorded: ameliorated
